SMILES strings stand for the structures.

A word on the IC50: it is the concentration that inhibits the measured activity by half.

The target of this experiment is T1, Recombinant human BRD4 containing dual bromodomains (BRD4-BD12 (1-477)) (Homo sapiens, UniProt O60885).
T1 construct: Recombinant human BRD4 containing dual bromodomains (BRD4-BD12 (1-477)); made in house; host or cells: E. coli BL21-CodonPlus (DE3), modified pET vector
As to the kind of experiment: BRD4 Alphascreen binding assay. Summed up:
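His-tagged human BRD4 tandem bromodomains (1-477, E. coli) incubated 1 h at room temperature with biotinylated tetra-acetylated H4 (1-21) peptide and compound in HEPES pH 7.5 buffer with 2 mM DTT. AlphaScreen signal read 30 min after adding beads (7.5 μg/ml); IC50 from four-parameter fit after normalization to controls.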
(In general: Alpha assays give light when donor and acceptor beads are brought close together.)

As to `Cc1noc(C)c1-c1cnc2c(c1)c(-c1ccc(C(=O)O)cc1)cn2C(C)c1ncccn1` (stereo not drawn) [P-0013, 4-(5-(3,5-dimethylisoxazol-4-yl)-1-(1-(pyrimidin-2-yl)ethyl)-1H-pyrrolo[2,3-b]pyridin-3-yl)benzoic acid], the IC50 lay within 8 to 1000 µM. On to `Cc1noc(C)c1-c1cnc2c(c1)c(-c1ccc(C(=O)O)cc1)cn2C(C)c1ccc(F)cn1` (stereo not drawn) [P-0014, 4-(5-(3,5-dimethylisoxazol-4-yl)-1-(1-(5-fluoropyridin-2-yl)ethyl)-1H-pyrrolo[2,3-b]pyridin-3-yl)benzoic acid], for which the IC50 was 8 to 1000 µM. Consider `Cc1noc(C)c1-c1cnc2c(c1)c(-c1cccc(C(=O)O)c1)cn2C(c1ccccn1)C1CCCC1` (stereo not drawn) [P-0015, 3-(1-(cyclopentyl(pyridin-2-yl)methyl)-5-(3,5-dimethylisoxazol-4-yl)-1H-pyrrolo[2,3-b]pyridin-3-yl)benzoic acid], for which the IC50 lay in the range of 1 to 8 µM. To `Cc1noc(C)c1-c1cnc2c(c1)c(-c1ccc(F)c(C(=O)O)c1)cn2C(c1ccccn1)C1CCCC1` (stereo not drawn) [P-0016, 5-(1-(cyclopentyl(pyridin-2-yl)methyl)-5-(3,5-dimethylisoxazol-4-yl)-1H-pyrrolo[2,3-b]pyridin-3-yl)-2-fluorobenzoic acid] belongs 1 to 8 µM. To `Cc1noc(C)c1-c1cnc2c(c1)c(-c1ccnc(C(=O)O)c1)cn2C(c1ccccn1)C1CCCC1` (stereo not drawn) [P-0017, 4-(1-(cyclopentyl(pyridin-2-yl)methyl)-5-(3,5-dimethylisoxazol-4-yl)-1H-pyrrolo[2,3-b]pyridin-3-yl)picolinic acid] belongs 1 to 8 µM; to `Cc1noc(C)c1-c1cnc2c(c1)c(-c1cccc(CC(=O)O)c1)cn2C(c1ccccn1)C1CCCC1` (stereo not drawn) [P-0018, 2-(3-(1-(cyclopentyl(pyridin-2-yl)methyl)-5-(3,5-dimethylisoxazol-4-yl)-1H-pyrrolo[2,3-b]pyridin-3-yl)phenyl)acetic acid], 1 to 8 µM; to `Cc1noc(C)c1-c1cnc2c(c1)c(-c1ccncc1)cn2C(c1ccccn1)C1CCCC1` (stereo not drawn) [P-0019, 4-(1-(cyclopentyl(pyridin-2-yl)methyl)-3-(pyridin-4-yl)-1H-pyrrolo[2,3-b]pyridin-5-yl)-3,5-dimethylisoxazole], 1 to 8 µM. The same measure for `Cc1noc(C)c1-c1cnc2c(c1)c(-c1ccc(C(=O)O)cc1OC1CC1)cn2[C@@H](C)c1ccccn1` [P-0170, (S)-3-cyclopropoxy-4-(5-(3,5-dimethylisoxazol-4-yl)-1-(1-(pyridin-2-yl)ethyl)-1H-pyrrolo[2,3-b]pyridin-3-yl)benzoic acid]: 8 to 1000 µM. As for `Cc1noc(C)c1-c1cnc2c(-c3ccc(C(=O)O)cc3C#CC3CC3)cn([C@@H](C)c3ccccn3)c2c1` [P-0171, (S)-3-(cyclopropylethynyl)-4-(6-(3,5-dimethylisoxazol-4-yl)-1-(1-(pyridin-2-yl)ethyl)-1H-pyrrolo[3,2-b]pyridin-3-yl)benzoic acid], the IC50 lay in the range of 0.0001 to 1 µM. To `COc1ccc(C(=O)O)cc1-c1cn(C(C)(c2ccccn2)c2ccccn2)c2cc(-c3c(C)noc3C)cnc12` [P-0172, 3-(1-(1,1-di(pyridin-2-yl)ethyl)-6-(3,5-dimethylisoxazol-4-yl)-1H-pyrrolo[3,2-b]pyridin-3-yl)-4-methoxybenzoic acid] belongs 1 to 8 µM; to `CCOc1cc(C(=O)O)cc(OCC)c1-n1cc(-c2cccnc2)c2ncc(-c3c(C)noc3C)cc21` [P-0173, 4-(6-(3,5-dimethylisoxazol-4-yl)-3-(pyridin-3-yl)-1H-pyrrolo[3,2-b]pyridin-1-yl)-3,5-diethoxybenzoic acid], 1 to 8 µM. The same measure for `CCOc1cc(C(=O)O)cc(OC(C)C)c1-c1cn([C@@H](C)c2ccccn2)c2ncc(-c3c(C)noc3C)cc12` [P-0174, (S)-4-(5-(3,5-dimethylisoxazol-4-yl)-1-(1-(pyridin-2-yl)ethyl)-1H-pyrrolo[2,3-b]pyridin-3-yl)-3-ethoxy-5-isopropoxybenzoic acid]: 8 to 1000 µM; for `Cc1noc(C)c1-c1cnc2c(c1)c(-c1ccc(C(=O)O)cc1OC(F)(F)F)cn2-c1cccnc1` [P-0175, 4-(5-(3,5-dimethylisoxazol-4-yl)-1-(pyridin-3-yl)-1H-pyrrolo[2,3-b]pyridin-3-yl)-3-(trifluoromethoxy)benzoic acid]: 1 to 8 µM. To `COc1ccncc1-n1cc(-c2ccc(C(=O)O)cc2OC(F)(F)F)c2cc(-c3c(C)noc3C)cnc21` [P-0176, 4-(5-(3,5-dimethylisoxazol-4-yl)-1-(4-methoxypyridin-3-yl)-1H-pyrrolo[2,3-b]pyridin-3-yl)-3-(trifluoromethoxy)benzoic acid] belongs 1 to 8 µM; to `Cc1noc(C)c1-c1cnc2c(c1)c(-c1ccc(C(=O)O)cc1OC(F)(F)F)cn2-c1cnccc1Cl` [P-0177, 4-(1-(4-chloropyridin-3-yl)-5-(3,5-dimethylisoxazol-4-yl)-1H-pyrrolo[2,3-b]pyridin-3-yl)-3-(trifluoromethoxy)benzoic acid], 8 to 1000 µM. As for `Cc1noc(C)c1-c1cnc2c(c1)c(-c1ccc(C(=O)O)cc1C#CC1CC1)cn2[C@@H](C)c1ccccn1` [P-0178, (S)-3-(cyclopropylethynyl)-4-(5-(3,5-dimethylisoxazol-4-yl)-1-(1-(pyridin-2-yl)ethyl)-1H-pyrrolo[2,3-b]pyridin-3-yl)benzoic acid], the IC50 was 8 to 1000 µM.

Consider `Cc1noc(C)c1-c1cnc2c(c1)c(-c1ccc(C(=O)O)cc1OC1CCC1)cn2[C@@H](C)c1ccccn1` [P-0179, (S)-3-cyclobutoxy-4-(5-(3,5-dimethylisoxazol-4-yl)-1-(1-(pyridin-2-yl)ethyl)-1H-pyrrolo[2,3-b]pyridin-3-yl)benzoic acid], for which the IC50 fell in the range of 8 to 1000 µM. The same measure for `Cc1noc(C)c1-c1cnc2c(c1)c(-c1ccc(C(=O)O)cc1OC(F)(F)F)cn2-c1ncccc1C(F)(F)F` [P-0180, 4-(5-(3,5-dimethylisoxazol-4-yl)-1-(3-(trifluoromethyl)pyridin-2-yl)-1H-pyrrolo[2,3-b]pyridin-3-yl)-3-(trifluoromethoxy)benzoic acid]: 8 to 1000 µM. `Cc1noc(C)c1-c1cnc2c(c1)c(-c1ccc(C(=O)O)cc1C1CC1)cn2[C@@H](C)c1ccccn1` [P-0181, (S)-3-cyclopropyl-4-(5-(3,5-dimethylisoxazol-4-yl)-1-(1-(pyridin-2-yl)ethyl)-1H-pyrrolo[2,3-b]pyridin-3-yl)benzoic acid]: the IC50 lay in the range of 8 to 1000 µM. The same measure for `Cc1noc(C)c1-c1cnc2c(c1)c(-c1ccc(C(=O)O)cc1OC(F)(F)F)cn2-c1ncccc1F` [P-0182, 4-(5-(3,5-dimethylisoxazol-4-yl)-1-(3-fluoropyridin-2-yl)-1H-pyrrolo[2,3-b]pyridin-3-yl)-3-(trifluoromethoxy)benzoic acid]: 1 to 8 µM.

For `Cc1noc(C)c1-c1cnc2c(c1)c(-c1ccc(C(=O)O)cc1OC(F)(F)F)cn2-c1ncccc1Cl` [P-0183, 4-(1-(3-chloropyridin-2-yl)-5-(3,5-dimethylisoxazol-4-yl)-1H-pyrrolo[2,3-b]pyridin-3-yl)-3-(trifluoromethoxy)benzoic acid], the IC50 was 8 to 1000 µM. To `CCOc1cc(C(=O)O)cc(OCC)c1-n1cc(-c2ccc(F)cc2)c2ncc(-c3c(C)noc3C)cc21` [P-0184, 4-(6-(3,5-dimethylisoxazol-4-yl)-3-(4-fluorophenyl)-1H-pyrrolo[3,2-b]pyridin-1-yl)-3,5-diethoxybenzoic acid] belongs 1 to 8 µM. For the molecule `CCOc1cc(C(=O)O)cc(OCC)c1-n1cc(-c2cccc(Cl)c2)c2ncc(-c3c(C)noc3C)cc21` [P-0185, 4-(3-(3-chlorophenyl)-6-(3,5-dimethylisoxazol-4-yl)-1H-pyrrolo[3,2-b]pyridin-1-yl)-3,5-diethoxybenzoic acid], the IC50 lay within 1 to 8 µM. The same measure for `CCOc1cc(C(=O)O)cc(OCC)c1-n1cc(-c2ccc(F)cc2F)c2ncc(-c3c(C)noc3C)cc21` [P-0186, 4-(3-(2,4-difluorophenyl)-6-(3,5-dimethylisoxazol-4-yl)-1H-pyrrolo[3,2-b]pyridin-1-yl)-3,5-diethoxybenzoic acid]: 8 to 1000 µM; for `CCOc1cc(C(=O)O)cc(OCC)c1-n1cc(Cc2ccccn2)c2ncc(-c3c(C)noc3C)cc21` [P-0187, 4-(6-(3,5-dimethylisoxazol-4-yl)-3-(pyridin-2-ylmethyl)-1H-pyrrolo[3,2-b]pyridin-1-yl)-3,5-diethoxybenzoic acid]: 8 to 1000 µM; for `Cc1noc(C)c1-c1cnc2c(c1)c(-c1ccc(C(=O)O)cc1OC(F)(F)F)cn2-c1ccccc1` [P-0188, 4-(5-(3,5-dimethylisoxazol-4-yl)-1-phenyl-1H-pyrrolo[2,3-b]pyridin-3-yl)-3-(trifluoromethoxy)benzoic acid]: 1 to 8 µM.

For `Cc1ccncc1-n1cc(-c2ccc(C(=O)O)cc2OC(F)(F)F)c2cc(-c3c(C)noc3C)cnc21` [P-0189, 4-(5-(3,5-dimethylisoxazol-4-yl)-1-(4-methylpyridin-3-yl)-1H-pyrrolo[2,3-b]pyridin-3-yl)-3-(trifluoromethoxy)benzoic acid], the IC50 lay in the range of 8 to 1000 µM.

In the case of `CCOc1cc(C(=O)O)cc(OCC)c1-n1cc(CC2CCC2)c2ncc(-c3c(C)nnn3C)cc21` [P-0190, 4-(3-(cyclobutylmethyl)-6-(1,4-dimethyl-1H-1,2,3-triazol-5-yl)-1H-pyrrolo[3,2-b]pyridin-1-yl)-3,5-diethoxybenzoic acid], the IC50 is 1 to 8 µM. Regarding `Cc1noc(C)c1-c1cnc2c(c1)c(-c1ccc(C(=O)O)cc1OC(F)(F)F)cn2CCN1CCOCC1` [P-0191, 4-(5-(3,5-dimethylisoxazol-4-yl)-1-(2-morpholinoethyl)-1H-pyrrolo[2,3-b]pyridin-3-yl)-3-(trifluoromethoxy)benzoic acid], the IC50 lay within 8 to 1000 µM. The same measure for `CCOc1cc(C(=O)O)cc(OCC)c1-n1cc(-c2ccc(C3CC3)nc2)c2ncc(-c3c(C)noc3C)cc21` [P-0192, 4-(3-(6-cyclopropylpyridin-3-yl)-6-(3,5-dimethylisoxazol-4-yl)-1H-pyrrolo[3,2-b]pyridin-1-yl)-3,5-diethoxybenzoic acid]: 1 to 8 µM.

The values are drawn from patent US11446287B2, “Compounds and methods for EP300 or CBP modulation and indications therefor” (Opna Immuno-Oncology SA, priority 2019, dated 2022).
